Data reported in US20260125346A1, “Isoquinolinone Derivatives and 4H-Quinolizinone Derivatives and Pharmaceutical Compositions Thereof for the Treatment of Disease” (BeOne Medicines I GmbH, priority 2023, published 2026).

Tests used:
Format in all cases: cell-based
[1] = system: WT cell line SK-BR-3; test: Phospho-AKT (Ser473) Inhibition Assay (HTRF), SK-BR-3; conditions: Homo sapiens; SK-BR-3, 1 hour treatment; read-out: p-AKT Inhibition assay (S473) IC50 SK-BR-3
Method in brief: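 SK-BR-3 (PI3Kα WT) cells seeded overnight in MEM with insulin, then treated 1 h with 11-point 1:3 dilutions (10 μM to 0.1 nM, 0.1% DMSO). Lysates read for phospho-AKT Ser473 by HTRF after 4 h antibody incubation at room temperature. IC50 from 4-parameter fit, % inhibition normalized to DMSO (max) and 10 μM GDC0077 (min).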

[2] = system: WT cell line SK-BR-3; test: Cell Proliferation Assay (CellTiter-Glo), SK-BR-3; conditions: Homo sapiens, 72 h; SK-BR-3, 3 days treatment
Method in brief: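 SK-BR-3 cells treated for 3 days with compound in a 9-point series, final concentrations 10 M to 1 nM in 0.1% DMSO. Viability read by CellTiter-Glo luminescence. Relative IC50 from percent inhibition versus medium-only and DMSO controls, four-parameter logistic fit.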

[3] = system: PI3Kα H1047R mutated cell line T-47D; test: Phospho-AKT (Ser473) Inhibition Assay (HTRF), T-47D; conditions: for IC50: Homo sapiens, T47D, T-47D, 1 hour treatment, read-out: p-AKT Inhibition assay (S473) IC50 T-47D; for Selectivity: SK-BR-3/T-47D (p-AKT): p-AKT (S473) IC50 ratio
Method in brief: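 Cells seeded overnight in insulin-supplemented MEM, then treated 1 h with 11-point 1:3 compound dilutions (10 μM to 0.1 nM final, 0.1% DMSO). Lysates assayed for phospho-AKT Ser473 by HTRF; IC50 from 4-parameter logistic fit, normalised to DMSO (max) and 10 μM GDC0077 (min).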

[4] = system: PI3Kα H1047R mutated cell line T-47D cells; test: Cell Proliferation Assay (CellTiter-Glo), T-47D; conditions: for IC50: Homo sapiens, T47D, 72 h, T-47D, 3 days treatment; for Selectivity: SK-BR-3/T-47D (cell proliferation): cell proliferation IC50 ratio
Method in brief: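 T-47D cells seeded overnight at 3×10^3/well, then exposed 3 days to 9-point 1:3 dilutions, final […] to 1 nM in 0.1% DMSO. CellTiter-Glo luminescence; relative IC50 from percent inhibition versus medium-only and 0.1% DMSO controls, 4-parameter logistic fit.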

Row | IC50 [1] [nM] | IC50 [2] [nM] | IC50 [3] [nM] | IC50 [4] [nM] | Compound | Selectivity: SK-BR-3/T-47D (p-AKT) [3] | Selectivity: SK-BR-3/T-47D (cell proliferation) [4]
1 | 4730 | > 10000 | 410 | 287 | Cc1cc(C(C)Nc2ccccc2C(=O)O)c2cc(-c3cnn(C)c3)n(C)c(=O)c2c1 (centres unmarked) [Example 91, 2-((1-(2,7-dimethyl-3-(1-methyl-1H-pyrazol-4-yl)-1-oxo-1,2-dihydroisoquinolin-5-yl)ethyl)amino)benzoic acid] | 11.6 | >35
2 | > 10000 | > 10000 | 144 | 112 | Cc1cc(C(C)Nc2ccccc2C(=O)O)c2cc(-c3ccc(C#N)cc3)n(C)c(=O)c2c1 (centres unmarked) [Example 4, 2-((1-(3-(4-cyanophenyl)-2,7-dimethyl-1-oxo-1,2-dihydroisoquinolin-5-yl)ethyl)amino)benzoic acid] | >69 | >89
3 | > 10000 | > 10000 | 109 | > 10000 | Cc1cc(C(C)Nc2sc3ccccc3c2C(=O)O)c2cc(-c3ccccc3)n(C)c(=O)c2c1 (centres unmarked) [Example 92, 2-((1-(2,7-dimethyl-1-oxo-3-phenyl-1,2-dihydroisoquinolin-5-yl)ethyl)amino)benzo[b]thiophene-3-carboxylic acid] | >91 | 
